According to patent publication US20240270751A1, “Pyrazolopyridinone Compounds” (BeiGene Ltd., priority 2021, published 2024):

Legend:
DGKα = DGKα (Homo sapiens (Human), UniProt P23743); experiment: Biochemical DGK IC50 assay, DGKα ADP-Glo assay; conditions: 7.5 nM enzyme, 140 μM ATP, 80 μM DAG
Procedure, shortened: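 ADP-Glo read-out with full-length DGKα on DAG/PS lipid micelle substrate in 25 mM HEPES pH 7.0, 0.5 mM EDTA, 160 mM octyl β-D-glucopyranoside. Compound final concentrations spanned 1.55˜10000 nM or 23.3˜150000 nM.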

DGKζ = DGKζ (Homo sapiens (Human), UniProt Q13574); experiment: Biochemical DGK IC50 assay, DGKζ ADP-Glo assay; conditions: 0.5 nM enzyme, 140 μM ATP, 80 μM DAG; read-out: DGKζ ADP-Glo assay IC50
Procedure, shortened: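 Full-length human DGKζ, His-TEV tagged and purified from baculovirus-infected Sf9 cells, assayed by ADP-Glo with DAG/PS lipid micelle substrate prepared in 25 mM HEPES pH 7.0 with octyl glucoside. Final compound concentrations spanned 1.55–10000 nM or 23.3–150000 nM.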

DGKζ, sequence (Q13574 other isoform, or with tags, fused parts or gaps): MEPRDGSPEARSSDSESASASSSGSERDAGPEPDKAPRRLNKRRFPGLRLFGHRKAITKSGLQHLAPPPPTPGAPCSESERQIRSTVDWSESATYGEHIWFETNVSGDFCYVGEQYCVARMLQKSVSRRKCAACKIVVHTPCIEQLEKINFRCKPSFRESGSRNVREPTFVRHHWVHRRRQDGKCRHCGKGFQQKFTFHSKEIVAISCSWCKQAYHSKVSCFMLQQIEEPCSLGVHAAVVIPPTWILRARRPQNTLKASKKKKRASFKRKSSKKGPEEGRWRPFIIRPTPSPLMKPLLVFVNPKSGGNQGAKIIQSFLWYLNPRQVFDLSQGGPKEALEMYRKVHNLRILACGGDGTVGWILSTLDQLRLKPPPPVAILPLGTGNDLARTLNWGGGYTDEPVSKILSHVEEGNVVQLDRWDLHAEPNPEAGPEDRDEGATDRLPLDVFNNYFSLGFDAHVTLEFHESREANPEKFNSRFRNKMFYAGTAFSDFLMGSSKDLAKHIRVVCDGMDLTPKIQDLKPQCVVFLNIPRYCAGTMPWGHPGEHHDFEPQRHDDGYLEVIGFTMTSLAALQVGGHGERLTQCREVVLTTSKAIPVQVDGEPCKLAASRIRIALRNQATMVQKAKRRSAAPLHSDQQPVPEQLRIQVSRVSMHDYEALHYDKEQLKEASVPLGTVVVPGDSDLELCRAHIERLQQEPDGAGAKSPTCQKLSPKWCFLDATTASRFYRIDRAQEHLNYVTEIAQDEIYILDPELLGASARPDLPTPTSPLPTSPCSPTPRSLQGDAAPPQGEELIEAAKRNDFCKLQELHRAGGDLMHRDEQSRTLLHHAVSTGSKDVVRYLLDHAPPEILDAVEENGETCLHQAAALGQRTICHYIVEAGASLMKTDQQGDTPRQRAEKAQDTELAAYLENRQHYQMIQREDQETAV
DGKα, sequence (P23743 whole entry): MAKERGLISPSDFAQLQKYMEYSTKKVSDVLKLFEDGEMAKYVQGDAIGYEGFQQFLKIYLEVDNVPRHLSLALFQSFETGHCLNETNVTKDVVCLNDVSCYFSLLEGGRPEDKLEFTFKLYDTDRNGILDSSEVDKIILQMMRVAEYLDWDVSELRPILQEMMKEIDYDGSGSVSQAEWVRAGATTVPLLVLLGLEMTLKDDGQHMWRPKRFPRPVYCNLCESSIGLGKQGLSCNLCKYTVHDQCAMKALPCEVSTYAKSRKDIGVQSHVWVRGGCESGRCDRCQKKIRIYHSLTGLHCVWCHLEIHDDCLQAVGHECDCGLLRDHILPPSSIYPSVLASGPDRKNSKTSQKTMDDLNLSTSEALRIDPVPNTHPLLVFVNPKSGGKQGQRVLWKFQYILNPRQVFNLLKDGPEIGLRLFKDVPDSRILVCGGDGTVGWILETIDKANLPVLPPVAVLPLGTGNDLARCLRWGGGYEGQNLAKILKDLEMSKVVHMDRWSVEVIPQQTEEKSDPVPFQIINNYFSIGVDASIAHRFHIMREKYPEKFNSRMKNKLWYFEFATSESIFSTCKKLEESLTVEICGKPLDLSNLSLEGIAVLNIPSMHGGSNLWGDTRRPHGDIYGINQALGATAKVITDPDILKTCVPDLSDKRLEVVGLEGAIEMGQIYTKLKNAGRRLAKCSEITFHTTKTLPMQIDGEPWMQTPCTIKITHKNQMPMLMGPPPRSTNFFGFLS

SMILES	IC50 (DGKα) [µM]	IC50 (DGKζ) [µM]
CC[C@H]1CN(C(C(=O)NCCOC)c2ccc(C(F)(F)F)cc2)[C@H](CC)CN1c1cc(=O)n(C)c2cn(CC#N)nc12 (stereo partly drawn) [Compound A296, 2-((2R,5S)-4-(2-(cyanomethyl)-4-methyl-5-oxo-4,5-dihydro-2H-pyrazolo[4,3-b]pyridin-7-yl)-2,5-diethylpiperazin-1-yl)-N-(2-methoxyethyl)-2-(4-(trifluoromethyl)phenyl)acetamide]	3.9	0.189
C[C@@H]1CN(c2cc(=O)n(C)c3cn(CC#N)nc23)[C@@H](C)CN1C(C)(C)c1ccc(F)cc1 [Compound A297, 2-(7-((2S,5R)-4-(2-(4-fluorophenyl)propan-2-yl)-2,5-dimethylpiperazin-1-yl)-4-methyl-5-oxo-4,5-dihydro-2H-pyrazolo[4,3-b]pyridin-2-yl)acetonitrile]	8.18	> 10
Cc1cnc2ccc(N(C)C3CC(C)N(c4cc(=O)n(C)c5cn(CC#N)nc45)CC3C)cc2n1 (centres unmarked) [Compound A298, 2-(7-(2,5-dimethyl-4-(methyl(3-methylquinoxalin-6-yl)amino)piperidin-1-yl)-4-methyl-5-oxo-4,5-dihydro-2H-pyrazolo[4,3-b]pyridin-2-yl)acetonitrile]	> 150	8.91
C=CCn1cc2c(n1)c(N1C[C@@H](C)N([C@@H](C)c3ccc4ncc(C)nc4c3)C[C@@H]1C)cc(=O)n2C [Compound A301, 2-allyl-7-((2S,5R)-2,5-dimethyl-4-((S)-1-(3-methylquinoxalin-6-yl)ethyl)piperazin-1-yl)-4-methyl-2,4-dihydro-5H-pyrazolo[4,3-b]pyridin-5-one]	> 150	0.131
CC=CCn1cc2c(n1)c(N1C[C@@H](C)N([C@@H](C)c3ccc4ncc(C)nc4c3)C[C@@H]1C)cc(=O)n2C [Compound A302, 2-(but-2-en-1-yl)-7-((2S,5R)-2,5-dimethyl-4-((S)-1-(3-methylquinoxalin-6-yl)ethyl)piperazin-1-yl)-4-methyl-2,4-dihydro-5H-pyrazolo[4,3-b]pyridin-5-one]	35.4	0.068
Cc1cnc2ccc([C@H](C)N3C[C@H](C)N(c4cc(=O)n(C)c5cn(CC=C(F)F)nc45)C[C@H]3C)cc2n1 [Compound A303, 2-(3,3-difluoroallyl)-7-((2S,5R)-2,5-dimethyl-4-((S)-1-(3-methylquinoxalin-6-yl)ethyl)piperazin-1-yl)-4-methyl-2,4-dihydro-5H-pyrazolo[4,3-b]pyridin-5-one]	102	0.019
CC(c1cc2ccccc2cn1)N1C[C@H](C)N(c2cc(=O)n(C)c3cn(CC#N)nc23)C[C@H]1C (some centres unmarked) [Compound A305]	1.49	1.19
Cc1ccc2ccc(C(C)N3C[C@H](C)N(c4cc(=O)n(C)c5cn(CC#N)nc45)C[C@H]3C)cc2n1 (some centres unmarked) [Compound A306]	18.2	0.495
CC(c1ccc2ccc(C#N)cc2c1)N1C[C@H](C)N(c2cc(=O)n(C)c3cn(CC#N)nc23)C[C@H]1C (some centres unmarked) [Compound A307]	2.47	1.75
Cc1cnc2ccc([C@H](C)N3C[C@H](C)N(c4cc(=O)[nH]c5cn(CC#N)nc45)C[C@H]3C)cc2n1 [Compound A308]	88.3	0.072
CC(c1ccc2ncc(CO)nc2c1)N1C[C@H](C)N(c2cc(=O)n(C)c3cn(CC#N)nc23)C[C@H]1C (stereo partly drawn) [Compound A309, 2-(7-((2S,5R)-4-(1-(3-(hydroxymethyl)quinoxalin-6-yl)ethyl)-2,5-dimethylpiperazin-1-yl)-4-methyl-5-oxo-4,5-dihydro-2H-pyrazolo[4,3-b]pyridin-2-yl)acetonitrile]	108	0.88
CC(c1ccc2ncc(C3CC3)nc2c1)N1C[C@H](C)N(c2cc(=O)n(C)c3cn(CC#N)nc23)C[C@H]1C (stereo partly drawn) [Compound A310, 2-(7-((2S,5R)-4-(1-(3-cyclopropylquinoxalin-6-yl)ethyl)-2,5-dimethylpiperazin-1-yl)-4-methyl-5-oxo-4,5-dihydro-2H-pyrazolo[4,3-b]pyridin-2-yl)acetonitrile]	94.7	0.127
CC(c1ccc2ncc(C(F)F)nc2c1)N1C[C@H](C)N(c2cc(=O)n(C)c3cn(CC#N)nc23)C[C@H]1C (stereo partly drawn) [Compound A311, 2-(7-((2S,5R)-4-(1-(3-(difluoromethyl)quinoxalin-6-yl)ethyl)-2,5-dimethylpiperazin-1-yl)-4-methyl-5-oxo-4,5-dihydro-2H-pyrazolo[4,3-b]pyridin-2-yl)acetonitrile]	6.63	0.041
CC(c1ccc2ncc(C(C)(F)F)nc2c1)N1C[C@H](C)N(c2cc(=O)n(C)c3cn(CC#N)nc23)C[C@H]1C (stereo partly drawn) [Compound A312, 2-(7-((2S,5R)-4-(1-(3-(1,1-difluoroethyl)quinoxalin-6-yl)ethyl)-2,5-dimethylpiperazin-1-yl)-4-methyl-5-oxo-4,5-dihydro-2H-pyrazolo[4,3-b]pyridin-2-yl)acetonitrile]	66	0.238
[2H]C([2H])([2H])c1cnc2ccc(C(C)N3C[C@H](C)N(c4cc(=O)n(C)c5cn(CC#N)nc45)C[C@H]3C)cc2n1 (stereo partly drawn) [Compound A313, 2-(7-((2S,5R)-2,5-dimethyl-4-(1-(3-(methyl-d3)quinoxalin-6-yl)ethyl)piperazin-1-yl)-4-methyl-5-oxo-4,5-dihydro-2H-pyrazolo[4,3-b]pyridin-2-yl)acetonitrile]	48	0.041
CC(c1ccc2ncc(C(F)(F)F)nc2c1)N1C[C@H](C)N(c2cc(=O)n(C)c3cn(CC#N)nc23)C[C@H]1C (stereo partly drawn) [Compound A314, 2-(7-((2S,5R)-2,5-dimethyl-4-(1-(3-(trifluoromethyl)quinoxalin-6-yl)ethyl)piperazin-1-yl)-4-methyl-5-oxo-4,5-dihydro-2H-pyrazolo[4,3-b]pyridin-2-yl)acetonitrile]	84.3	0.689
CC(c1ccc2nc(C(F)(F)F)cnc2c1)N1C[C@H](C)N(c2cc(=O)n(C)c3cn(CC#N)nc23)C[C@H]1C (stereo partly drawn) [Compound A315, 2-(7-((2S,5R)-2,5-dimethyl-4-(1-(2-(trifluoromethyl)quinoxalin-6-yl)ethyl)piperazin-1-yl)-4-methyl-5-oxo-4,5-dihydro-2H-pyrazolo[4,3-b]pyridin-2-yl)acetonitrile]	61	3.59
Cc1nc2cc(C(C)N3C[C@H](C)N(c4cc(=O)n(C)c5cn(CC#N)nc45)C[C@H]3C)ccc2nc1O (stereo partly drawn) [Compound A316, 2-(7-((2S,5R)-4-(1-(2-hydroxy-3-methylquinoxalin-6-yl)ethyl)-2,5-dimethylpiperazin-1-yl)-4-methyl-5-oxo-4,5-dihydro-2H-pyrazolo[4,3-b]pyridin-2-yl)acetonitrile]	67	> 10
Cc1cnc2ccc([C@H](C)N3C[C@H](C)N(c4c(F)c(=O)n(C)c5cn(CC#N)nc45)C[C@H]3C)cc2n1 [Compound A317, 2-(7-((2S,5R)-2,5-dimethyl-4-((S)-1-(3-methylquinoxalin-6-yl)ethyl)piperazin-1-yl)-6-fluoro-4-methyl-5-oxo-4,5-dihydro-2H-pyrazolo[4,3-b]pyridin-2-yl)acetonitrile]	8.65	0.021
